From US9643994B2, “Crystalline polymorphic form of ulipristal acetate” (ASKA PHARMACEUTICAL CO., LTD., priority 2012, dated 2017)
Values after ≈ are worked out from the molar mass of the structure shown. Read-outs that look alike come from different tables or passages of the source.

Assay: Solubility in ethanol/water (10/90) mixed solvent at 37° C., HPLC quantitation
Assay type: physicochemical
Text: [Solubility] […] Then a portion of the suspension was separated.

| SMILES | Solubility [µg/mL] | Solubility (40 mg in 40 mL ethanol/water (volume ratio)=10/90, 37° C., stirred 5 minutes, filtered, HPLC UV 302 nm) [µg/mL] |
| --- | --- | --- |
| CC(=O)O[C@]1(C(C)=O)CCC2C3CCC4=CC(=O)CCC4=C3[C@@H](c3ccc(N(C)C)cc3)C[C@@]21C (stereo partly drawn) [Comparative Example, 17alpha-acetoxy-11beta-(4-N,N-dimethylaminophenyl)-19-norpregna-4,9-diene-3,20-dione] | 6.4 (≈ 13.5 µM) |  |
| CC(=O)O[C@]1(C(C)=O)CCC2C3CCC4=CC(=O)CCC4=C3[C@@H](c3ccc(N(C)C)cc3)C[C@@]21C (stereo partly drawn) [Example 1, 17alpha-acetoxy-11beta-(4-N,N-dimethylaminophenyl)-19-norpregna-4,9-diene-3,20-dione] |  | 9.2 |
